Assay results published in patent US20250163057A1, “DCN-1 MODULATING COMPOUNDS AND METHODS OF USE THEREOF” (Cellarity, Inc., priority 2023, published 2025).
Like-named read-outs stand apart in the source and are kept apart here.

Legend:
[1] = tested on: Cullin-3 (CUL3) neddylation; assay: AlphaLISA assay for Cullin-3 (CUL3) neddylation in TF 1 cells; format: cell-based; conditions: Homo sapiens, TF-1, 3 h, 3 hours treatment
Method in brief: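 Neddylated CUL3 was quantified by AlphaLISA in lysates of TF 1 cells exposed for 3 h to test compound in IMDM without supplements. Percent inhibition set between vehicle and 1 μM DI-1548 positive control; IC50 derived by Hill-equation fitting of dose-response curves.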

[2] = target: DCN1 (DCUND1) protein PONY domain (Homo sapiens (Human), UniProt Q96GG9); assay: TR-FRET assay, DCN1 binding with FAM-labeled probe
DCN1 (DCUND1) protein PONY domain, sequence (Q96GG9 60-248): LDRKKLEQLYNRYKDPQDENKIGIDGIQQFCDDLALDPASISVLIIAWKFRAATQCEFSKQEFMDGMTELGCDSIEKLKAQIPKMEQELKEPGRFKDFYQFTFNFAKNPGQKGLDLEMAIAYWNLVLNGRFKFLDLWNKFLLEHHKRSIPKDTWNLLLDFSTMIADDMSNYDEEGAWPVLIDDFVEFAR
Method in brief: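 TR-FRET ratio (Tb-DCN1 to FAM-probe) read at 1, 5 and 24 hrs after compound addition. Protein: recombinant PONY domain from E. coli, biotinylated and coupled to streptavidin terbium. Either 5 nM DCN1 with 20 nM FAM-probe, or 0.31 nM DCN1 with 100 nM FAM-labelled plus 800 nM unlabelled probe.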

[3] = target: DCN1 protein (Homo sapiens (Human), UniProt Q96GG9); assay: Intact Protein MS Analysis with the RapidFire-TOF System (covalent adduct formation); format: binding; conditions: MS Emax; 400 nM DCN1, 3 hours at room temperature
DCN1 protein, sequence (Q96GG9 whole entry): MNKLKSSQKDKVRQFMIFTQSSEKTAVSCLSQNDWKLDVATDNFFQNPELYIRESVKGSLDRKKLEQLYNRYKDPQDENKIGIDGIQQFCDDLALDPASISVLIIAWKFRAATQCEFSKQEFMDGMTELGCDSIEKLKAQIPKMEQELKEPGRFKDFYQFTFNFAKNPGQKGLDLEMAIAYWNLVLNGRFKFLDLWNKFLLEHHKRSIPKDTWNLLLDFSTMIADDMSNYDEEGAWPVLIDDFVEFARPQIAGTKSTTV
Method in brief: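 Tag-cleaved human DCN1 (400 nM) expressed in E. coli, in 25 mM Tris-HCl, 200 mM NaCl, 1 mM DTT, was incubated with 11 compound concentrations for 3 h at room temperature and quenched with 0.2% formic acid. Intact-protein Q-TOF MS with deconvolution detected the compound adduct mass.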

[4] = 24 hr after treatment with compound, read-out: TR FRET IC50 24 hr
[5] = read-out: TR FRET IC50 1 hr, 1 hr after treatment with compound
[6] = TR FRET IC50 1 hr (nM), 1 hr after treatment with compound

Compound	IC50 [1] [µM]	IC50 [2, 4] [nM]	IC50 [2, 5] [nM]	% Adduct Formation [3]	IC50 [2, 6] [nM]
CCN1C(=O)[C@@H](NC(=O)c2cccc(C(F)(F)F)c2)[C@@H](c2ccc(F)cc2)c2c(C(=O)N(C)[C@@H](C#N)C3COC3)nn(-c3ccccc3)c21 (single isomer, unassigned) [Compound I-291]	≤ 0.1	≤ 200	≤ 200	+++ (MS Emax % adduct formation greater than 80.0 and less than or equal to 100.0)	–
CCN1C(=O)[C@H](NC(=O)c2cccc(C(F)(F)F)c2)[C@H](c2ccc(F)cc2)c2c(C(=O)N3CCOCC3C#N)nn(-c3ccccc3)c21 (single isomer, unassigned) [Compound I-296]	≤ 0.1	≤ 200	–	++ (MS Emax % adduct formation greater than 30.0 and less than or equal to 80.0)	1000 to 3000
CCN1C(=O)[C@@H](NC(=O)c2cccc(C(F)(F)F)c2)[C@@H](c2ccc(F)cc2)c2c(C(=O)N(C)[C@@H](C)C#N)nn(-c3ccccc3)c21 (single isomer, unassigned) [Compound I-300, (4S,5S)—N—((S*)-1-cyanoethyl)-7-ethyl-4-(4-fluorophenyl)-N-methyl-6-oxo-1-phenyl-5-(3-(trifluoromethyl)benzamido)-4,5,6,7-tetrahydro-1H-pyrazolo[3,4-b]pyridine-3-carboxamide]	≤ 0.1	≤ 200	–	+++ (MS Emax % adduct formation greater than 80.0 and less than or equal to 100.0)	≤ 200
CCN1C(=O)[C@@H](NC(=O)c2cccc(C(F)(F)F)c2)[C@@H](c2ccc(F)cc2)c2c(C(=O)N(C)[C@@H](C#N)CCN(C)C3COC3)nn(-c3ccccc3)c21 (single isomer, unassigned) [Compound I-311]	≤ 0.1	≤ 200	≤ 200	+ (MS Emax % adduct formation greater than or equal to 0.0 and less than or equal to 30.0)	–
CCN(CC#N)C(=O)c1nn(-c2ccccc2)c2c1[C@H](c1ccc(F)cc1)[C@H](NC(=O)c1cccc(C(F)(F)F)c1)C(=O)N2CC (stereo in doubt) [Compound I-283]	≤ 0.1	≤ 200	≤ 200	+++ (MS Emax % adduct formation greater than 80.0 and less than or equal to 100.0)	–
CCN1C(=O)[C@@H](NC(=O)c2cccc(C(F)(F)F)c2)[C@@H](c2ccc(F)cc2)c2c(C(=O)N(CC#N)C3CC3)nn(-c3ccccc3)c21 (stereo in doubt) [Compound I-284]	≤ 0.1	≤ 200	≤ 200	+++ (MS Emax % adduct formation greater than 80.0 and less than or equal to 100.0)	–
CCN1C(=O)[C@@H](NC(=O)c2cccc(C(F)(F)F)c2)[C@@H](c2ccc(F)cc2)c2c(C(=O)N(CC#N)CCO)nn(-c3ccccc3)c21 (stereo in doubt) [Compound I-286]	≤ 0.1	≤ 200	≤ 200	+ (MS Emax % adduct formation greater than or equal to 0.0 and less than or equal to 30.0)	–
CCN1C(=O)[C@@H](NC(=O)c2cccc(C(F)(F)F)c2)[C@@H](c2ccc(F)cc2)c2c(C(=O)N(CC#N)CC(=O)OC)nn(-c3ccccc3)c21 (stereo in doubt) [Compound I-287]	≤ 0.1	≤ 200	≤ 200	+++ (MS Emax % adduct formation greater than 80.0 and less than or equal to 100.0)	–
CCN1C(=O)[C@@H](NC(=O)c2cccc(C(F)(F)F)c2)[C@@H](c2ccc(F)cc2)c2c(C(=O)N(CC#N)CCC(=O)OC)nn(-c3ccccc3)c21 (stereo in doubt) [Compound I-288]	≤ 0.1	≤ 200	≤ 200	+++ (MS Emax % adduct formation greater than 80.0 and less than or equal to 100.0)	–
CCN1C(=O)[C@H](NC(=O)c2cccc(C(F)(F)F)c2)[C@H](c2ccc(F)cc2)c2c(C(=O)N3CCC[C@H]3C#N)nn(-c3cccc(OCCCN4CC5(COC5)C4)c3)c21 (stereo in doubt) [Compound I-293]	≤ 0.1	≤ 200	–	+++ (MS Emax % adduct formation greater than 80.0 and less than or equal to 100.0)	≤ 200
C=C(CN1CC2(COC2)C1)C(=O)NCc1nn(-c2ccccc2)c2c1[C@H](c1ccc(F)cc1)[C@H](NC(=O)c1cccc(C(F)(F)F)c1)C(=O)N2CC [Compound I-138]	≤ 0.1	≤ 200	≤ 200	+++ (MS Emax % adduct formation greater than 80.0 and less than or equal to 100.0)	–
C=C(CN1CC2(COC2)C1)C(=O)NCc1nn(-c2ccccc2)c2c1[C@H](c1ccc(F)cc1)[C@@H](NC(=O)c1cccc(C(F)(F)F)c1)C(=O)N2CC [Compound I-149]	≤ 0.1	≤ 200	≤ 200	+++ (MS Emax % adduct formation greater than 80.0 and less than or equal to 100.0)	–
CCN1C(=O)[C@@H](NC(=O)c2cccc(C(F)(F)F)c2)[C@@H](c2ccc(F)cc2)c2c(C(=O)N3CC[C@H]3C#N)nn(-c3ccccc3)c21 [Compound I-275]	≤ 0.1	≤ 200	≤ 200	++ (MS Emax % adduct formation greater than 30.0 and less than or equal to 80.0)	–
CCN1C(=O)[C@@H](NC(=O)c2cccc(C(F)(F)F)c2)[C@@H](c2ccc(F)cc2)c2c(C(=O)N3CCOC[C@H]3C#N)nn(-c3ccccc3)c21 [Compound I-276]	≤ 0.1	≤ 200	–	+++ (MS Emax % adduct formation greater than 80.0 and less than or equal to 100.0)	200 to 1000
CCN1C(=O)[C@@H](NC(=O)c2cccc(C(F)(F)F)c2)[C@@H](c2ccc(F)cc2)c2c([C@@H](CF)NC#N)nn(-c3ccccc3)c21 [Compound I-279]	≤ 0.1	≤ 200	≤ 200	+++ (MS Emax % adduct formation greater than 80.0 and less than or equal to 100.0)	–
CCN1C(=O)[C@@H](NC(=O)c2cccc(C(F)(F)F)c2)[C@@H](c2ccc(F)cc2)c2c(C(=O)N3CCNC[C@@H]3C#N)nn(-c3ccccc3)c21 [Compound I-280]	≤ 0.1	≤ 200	≤ 200	+++ (MS Emax % adduct formation greater than 80.0 and less than or equal to 100.0)	–
CCN1C(=O)[C@@H](NC(=O)c2cccc(C(F)(F)F)c2)[C@H](c2ccc(F)cc2)c2c(CC(=O)NCC#N)nn(-c3ccccc3)c21 [Compound I-298, N-((4R,5S)-3-(2-((cyanomethyl)amino)-2-oxoethyl)-7-ethyl-4-(4-fluorophenyl)-6-oxo-1-phenyl-4,5,6,7-tetrahydro-1H-pyrazolo[3,4-b]pyridin-5-yl)-3-(trifluoromethyl)benzamide]	0.1 to 1	200 to 1000	–	+ (MS Emax % adduct formation greater than or equal to 0.0 and less than or equal to 30.0)	200 to 1000
CCN1C(=O)[C@@H](NC(=O)c2cccc(C(F)(F)F)c2)[C@H](c2ccc(F)cc2)c2c(CNC(=O)CC#N)nn(-c3ccccc3)c21 [Compound I-299]	0.1 to 1	200 to 1000	≤ 200	+ (MS Emax % adduct formation greater than or equal to 0.0 and less than or equal to 30.0)	–
CCN1C(=O)[C@@H](NC(=O)c2cccc(C(F)(F)F)c2)[C@@H](c2ccc(F)cc2)c2c(C(=O)N(CC#N)CC#N)nn(-c3ccccc3)c21 [Compound I-302]	≤ 0.1	≤ 200	≤ 200	+++ (MS Emax % adduct formation greater than 80.0 and less than or equal to 100.0)	–
CCN1C(=O)[C@@H](NC(=O)c2cccc(C(F)(F)F)c2)C(c2ccc(F)cc2)c2c(C(=O)N(C)C(C)C#N)nn(C3CCOCC3)c21 (some centres unmarked) [Compound I-305]	≤ 0.1	≤ 200	≤ 200	+++ (MS Emax % adduct formation greater than 80.0 and less than or equal to 100.0)	–
CCN1C(=O)[C@@H](NC(=O)c2cccc(C(F)(F)F)c2)[C@@H](c2ccc(C)cc2)c2c(C(=O)N(C)C(C)C#N)nn(C3CC3)c21 (some centres unmarked) [Compound I-306]	≤ 0.1	≤ 200	≤ 200	++ (MS Emax % adduct formation greater than 30.0 and less than or equal to 80.0)	–
CCCn1nc(C(=O)N(C)C(C)C#N)c2c1N(CC)C(=O)[C@@H](NC(=O)c1cccc(C(F)(F)F)c1)[C@H]2c1ccc(F)cc1 (some centres unmarked) [Compound I-307]	≤ 0.1	≤ 200	≤ 200	+++ (MS Emax % adduct formation greater than 80.0 and less than or equal to 100.0)	–
CCN1C(=O)[C@@H](NC(=O)c2cccc(C(F)(F)F)c2)[C@@H](c2ccc(F)cc2)c2c(C(=O)N(C)[C@H](C#N)CCN3CCOCC3)nn(-c3ccccc3)c21 [Compound I-308]	≤ 0.1	≤ 200	≤ 200	+++ (MS Emax % adduct formation greater than 80.0 and less than or equal to 100.0)	–
